Source: ChEMBL document CHEMBL3785054, “Identification of inhibitors for vascular endothelial growth factor receptor by using dynamic combinatorial chemistry” (Bioorg Med Chem Lett, 2016)
Activity calls are given as the source filed them. No cut-off for these calls is given here.

What was measured:
HT-29 = test: Cytotoxicity against human HT-29 cells by MTT assay; format: functional, cell-based
MDA-MB-435 = test: Cytotoxicity against human MDA-MB-435 cells by MTT assay; format: functional, cell-based
[1] = Cytotoxicity against human PC3 cells by MTT assay; format: functional, cell-based; settings: PC-3
Chorioallantoic membrane = test: Antiangiogenic activity in chicken chorioallantoic membrane assessed as inhibition of vascular branch formation after 3 days; format: functional; settings: Gallus gallus
A549 = test: Cytotoxicity against human A549 cells by MTT assay; format: functional, cell-based
[2] = Cytotoxicity against human BGC823 cells by MTT assay; format: functional, cell-based; settings: BGC-823
[3] = Cytotoxicity against human […] cells by MTT assay; format: functional, cell-based

| SMILES | IC50 (HT-29) | IC50 (MDA-MB-435) | IC50 [1] | inhibition (Chorioallantoic membrane) | IC50 (A549) | IC50 [2] | IC50 [3] | inhibition (Chorioallantoic membrane; dose or concentration not given here) |
| --- | --- | --- | --- | --- | --- | --- | --- | --- |
| O=C(Nc1ccc2c(/C=N/c3cccnc3)n[nH]c2c1)Nc1nncs1 | 12.1 µM | 55.6 µM | 7.8 µM | Active | 2.4 µM | 67.2 µM | > 100 µM | – |
| CC1CC(=O)NN=C1c1ccc(NC(=O)Nc2ccc3c(/C=N/c4nccs4)n[nH]c3c2)cc1 (stereo unspecified) | 12.8 µM | 22.7 µM | 5.6 µM | – | 8.9 µM | 78 µM | 11.2 µM | – |
| O=C(Nc1ccc2c(/C=N/c3ccccn3)n[nH]c2c1)Nc1nncs1 | 9.4 µM | 4.8 µM | > 100 µM | Active | 56.4 µM | > 100 µM | > 100 µM | – |
| O=C(Nc1ccc2c(/C=N/c3ncccn3)n[nH]c2c1)Nc1nccs1 | 78.6 µM | 55.2 µM | 6.8 µM | – | 19.6 µM | 12.8 µM | 15.4 µM | 51.6% |
| CCN(CC)CCNC(=O)c1c(C)[nH]c(/C=C2\C(=O)Nc3ccc(F)cc32)c1C [SUNITINIB] | 1.7 µM | 9.3 µM | 55.6 µM | – | 9.1 µM | – | – | – |
